Test results reported in patent US20070161592A1, “Method of treating fear” (priority 2005, published 2007).

Columns and labels:
adult ACC neurons = assay: LTP induced by EPSPs-APs protocol in ACC slices; assay type: cell-based, mouse; conditions: 0.3 μM
Description: Coronal brain slices ([…]) from 6-8-week-old C57BL/6 mice, containing ACC or hippocampus, were prepared using standard methods (Wei et al., 2001). Slices were transferred to a submerged recovery chamber containing oxygenated (95% O2 and 5% CO2) artificial cerebrospinal fluid (ACSF) (in mM: 124 NaCl, 4.4 KCl, 2 CaCl2, 1 MgSO4, 25 NaHCO3, 1 NaH2PO4, 10 glucose) at room temperature for at least 1 h.
Experiments were performed in a recording chamber on the stage of an Axioskop 2FS microscope with infrared DIC optics for visualizing whole-cell patch clamp recordings. EPSCs were recorded from layer II-III neurons using an Axon 200B amplifier (Axon Instruments, CA) and stimulations were delivered using a bipolar tungsten stimulating electrode placed in layer V of the ACC. In hippocampal slices, EPSCs were evoked by stimulating the Schaffer collateral-commissural pathway. EPSCs were induced by repetitive stimulations at 0.02 Hz and neurons were voltage clamped at −70 mV. The recording pipettes (3-5 MΩ) were filled with solution containing (mM) 145 K-gluconate, 5 NaCl, 1 MgCl2, 0.2 EGTA, 10 HEPES, 2 Mg-ATP, and 0.1 Na3-GTP (adjusted to pH 7.2 with KOH). After obtaining stable EPSCs for 10 min, three kinds of LTP induction paradigms were used within 12 min after establishing the whole-cell configuration to prevent wash out effect on LTP induction (Tsvetkov et al., 2002). The first protocol involved paired presynaptic 80 pulses at 2 Hz with postsynaptic depolarization at +30 mV (referred to as pairing training). The second involved paired 3 presynaptic stimuli that caused 3 EPSPs (10 ms ahead) with 3 postsynaptic APs at 30 Hz, paired 15 times every 5 s (named as EPSPs-APs protocol). The third involved theta-burst stimulation (5 trains of burst with 4 pulses at 100 Hz, at 200 ms interval; repeated 4 times at intervals of 10 s; named as TBS). The NMDAR-mediated component of EPSCs was pharmacologically isolated in Mg^2+-free ACSF containing: CNQX (20 μM), glycine (1 μM) and picrotoxin (100 μM). The patch electrodes contained (in mM) 102 cesium gluconate, 5 TEA-chloride, 3.7 NaCl, 11 BAPTA, 0.2 EGTA, 20 HEPES, 2 MgATP, 0.3 NaGTP, and 5 QX-314 chloride (adjusted to pH 7.2 with CsOH). Neurons were voltage clamped at −60 mV and NMDARs-mediated EPSCs were evoked at 0.05 Hz. Picrotoxin (100 μM) was always present to block GABAA receptor-mediated inhibitory synaptic currents. The access resistance was 15-30 MΩ and was monitored throughout the experiment. Data were discarded if access resistance changed by more than 15% during an experiment. Results are expressed as means±SEM. Statistical comparisons were performed using the Student t-test. […]

NR1/NR2A = conditions: cited from earlier work
[1] = system: NR2A, NR1, GluR1, and actin; assay: Western blot of other membrane proteins in ACC after siRNA electroporation; assay type: in vivo, mouse; conditions: four days after electroporation, vs control siRNA
Description: Equal amounts of protein from the ACC and hippocampus were separated and electrotransferred onto PDVF membranes (Invitrogen), which were probed with anti-NR2A, anti-NR2B (Chemicon), and anti-PSD-95 (ABR) and with β-actin (Sigma) as a loading control. The membranes were incubated with horseradish peroxidase-conjugated secondary antibodies (anti-mouse IgG for PSD-95 and anti-rabbit IgG for the other primary antibodies), and bands were visualized using an ECL system (Perkin Elmer). Synaptosomal membrane fractions (LP1) were prepared as previously described (Dunah and Standaert, 2001) and solubilized using 1% SDS in TEVP buffer: 10 mM Tris-HCl, pH 7.4, 1 mM EDTA, 1 mM EGTA, 1× protease inhibitor cocktail (Sigma), and 1× phosphatase inhibitor cocktail 1 and 2 (Sigma). […] Results are expressed as means±SEM. […]
To inhibit NR2B expression specifically in the prefrontal cortex, including the ACC, siRNA was bilaterally delivered against NR2B with a reporter plasmid encoding EGFP by microelectroporation (Wei et al., 2003) (FIG. 8A). […] The expression levels of other NMDAR subunits (NR2A and NR1) and AMPA receptor subunit GluR1 were measured, and actin was used as a control in the ACCs of NR2B siRNA and control siRNA electroporated mice.

C[C@@H](CN1CCC(Cc2ccccc2)CC1)[C@@H](O)c1ccc(O)cc1 [Ro25-6981]
potentiation after EPSPs-APs protocol, % of baseline (adult ACC neurons): 114.4±11.5%
effect on LTP induced by EPSPs-APs protocol (adult ACC neurons; FIG. 4B): blocked
IC50 (NR1/NR2A): 52 µM

NR2B siRNA: siRNA corresponding to NR2B, sense 5′-GGAUGAGUCCUCCAUGUUCtt-3′, antisense 5′-GAACAUGGAGGACUCAUCCtt-3′, Silencer Pre-designed siRNA ID #61879, Ambion (sense GGAUGAGUCCUCCAUGUUCTT; antisense GAACAUGGAGGACUCAUCCTT; chemistry not given here)
expression levels of NR2A, NR1, GluR1, and actin [1]: not significantly changed
